# Columns and labels:
# Format in all cases: physicochemical
# [1] = Evaluation of water resistance (OD1 after/before dipping in water); conditions: aqueous ink, OD1 after dipping in water and air-drying
# Experimental: (§1) Glycerin and water were added to the dispersion (A) of colored resin fine particles to obtain aqueous ink having a solid content of 15% by weight. This aqueous ink was used, and filled in an ink cartridge for a piezo-type ink jet printer, and printing and image recording were conducted with the same printer. The test was conducted on the following items.
# (D) Evaluation of Water Resistance
# With respect to a printed portion of a plain paper having a recorded image thereon for test, printing density (OD value) was measured with a reflection densitometer before dipping in water and after dipping in water and air-drying. Water resistance was evaluated upon comparing OD1.
# OD1=(OD value after dipping in water and air-drying)/(OD value before dipping in water)×100[%]
# [2] = Evaluation of light fastness (xenon fadeometer, OD2); conditions: aqueous ink, ink production process Example 1; OD2 after 100 hours of irradiation
# Experimental: as §1
# (E) Evaluation of Light Fastness
# Printing density (OD value) was measured using a xenon fadeometer (manufactured by Suga Shikenki) before irradiation and after 100 hours of irradiation. Light fastness was evaluated upon comparing OD2.
# OD2=(OD value after irradiation)/(OD value before irradiation)×100[%]
# [3] = as above; conditions: aqueous ink, ink production process Example 2; OD2 after 100 hours of irradiation
# [4] = ink production process Example 1
# [5] = ink production process Example 2
SMILES,"D (Evaluation of water resistance) [1, 4]",E (Evaluation of light fastness) [2],E (Evaluation of light fastness) [3],"D (Evaluation of water resistance) [1, 5]"
CCCCCCCCN(CCCCCCCC)c1cccc(Oc2cc(O)c3c(c2N)C(=O)c2ccccc2C3=O)c1 [Coloring matter No. 1],⊚⊚ (OD value is 90 to 100%.),⊚⊚ (OD value is 90 to 100%.),–,–
Nc1ccccc1Oc1cc(O)c2c(c1N)C(=O)c1ccccc1C2=O [compound 4],⊚ (OD value is 80 to less than 90%.),◯ (OD value is 70 to less than 80%.),◯ (OD value is 70 to less than 80%.),⊚ (OD value is 80 to less than 90%.)
CN(C)c1cccc(Oc2cc(O)c3c(c2N)C(=O)c2ccccc2C3=O)c1 [compound 5],⊚⊚ (OD value is 90 to 100%.),⊚ (OD value is 80 to less than 90%.),⊚ (OD value is 80 to less than 90%.),⊚⊚ (OD value is 90 to 100%.)
CCNc1cccc(Oc2cc(O)c3c(c2N)C(=O)c2ccccc2C3=O)c1 [compound 6],⊚⊚ (OD value is 90 to 100%.),⊚ (OD value is 80 to less than 90%.),◯ (OD value is 70 to less than 80%.),⊚⊚ (OD value is 90 to 100%.)
CCN(CC)c1cccc(Oc2cc(O)c3c(c2N)C(=O)c2ccccc2C3=O)c1 [compound 7],⊚⊚ (OD value is 90 to 100%.),⊚ (OD value is 80 to less than 90%.),⊚ (OD value is 80 to less than 90%.),⊚⊚ (OD value is 90 to 100%.)
CCCN(CCC)c1cccc(Oc2cc(O)c3c(c2N)C(=O)c2ccccc2C3=O)c1 [compound 8],⊚⊚ (OD value is 90 to 100%.),⊚⊚ (OD value is 90 to 100%.),⊚⊚ (OD value is 90 to 100%.),⊚⊚ (OD value is 90 to 100%.)
CCCCCCN(CCCCCC)c1cccc(Oc2cc(O)c3c(c2N)C(=O)c2ccccc2C3=O)c1 [compound 10],⊚⊚ (OD value is 90 to 100%.),⊚⊚ (OD value is 90 to 100%.),⊚⊚ (OD value is 90 to 100%.),⊚⊚ (OD value is 90 to 100%.)
CCCC(C)N(c1cccc(Oc2cc(O)c3c(c2N)C(=O)c2ccccc2C3=O)c1)C(C)CCC (stereo not drawn) [compound 11],⊚⊚ (OD value is 90 to 100%.),⊚⊚ (OD value is 90 to 100%.),⊚⊚ (OD value is 90 to 100%.),⊚⊚ (OD value is 90 to 100%.)
Nc1c(Oc2ccc(C(c3ccccc3)c3ccccc3)cc2)cc(O)c2c1C(=O)c1ccccc1C2=O [compound 12],⊚ (OD value is 80 to less than 90%.),◯ (OD value is 70 to less than 80%.),◯ (OD value is 70 to less than 80%.),⊚ (OD value is 80 to less than 90%.)
CCCCC(CC)CC(=O)Nc1ccc(O)cc1Sc1cc(O)c2c(c1N)C(=O)c1ccccc1C2=O (stereo not drawn) [compound 19],◯ (OD value is 70 to less than 80%.),Δ (OD value is 50 to less than 70%.),–,–
CCCCCCCCOC(=O)CSc1cc(O)c2c(c1N)C(=O)c1ccccc1C2=O [compound 20],◯ (OD value is 70 to less than 80%.),Δ (OD value is 50 to less than 70%.),–,–
CCCCCCCCSc1cc(O)c2c(c1N)C(=O)c1ccccc1C2=O [compound 21],◯ (OD value is 70 to less than 80%.),Δ (OD value is 50 to less than 70%.),–,–
Nc1ccccc1Sc1cc(O)c2c(c1N)C(=O)c1ccccc1C2=O [compound 22],◯ (OD value is 70 to less than 80%.),Δ (OD value is 50 to less than 70%.),–,–
Nc1c(Oc2ccccc2)cc(O)c2c1C(=O)c1ccccc1C2=O [compound 23],◯ (OD value is 70 to less than 80%.),Δ (OD value is 50 to less than 70%.),–,–
Cc1cccc(Oc2cc(O)c3c(c2N)C(=O)c2ccccc2C3=O)c1 [compound 24],◯ (OD value is 70 to less than 80%.),◯ (OD value is 70 to less than 80%.),–,–
Cc1ccc(CCCOc2cc(O)c3c(c2N)C(=O)c2ccccc2C3=O)cc1 [compound 25],◯ (OD value is 70 to less than 80%.),◯ (OD value is 70 to less than 80%.),–,–

SMILES,"D (Evaluation of water resistance) [1, 4]",E (Evaluation of light fastness) [2],E (Evaluation of light fastness) [3],"D (Evaluation of water resistance) [1, 5]"
CCCCC(CC)COC(=O)CSc1cccc(Oc2cc(O)c3c(c2N)C(=O)c2ccccc2C3=O)c1 (stereo not drawn) [compound 26],◯ (OD value is 70 to less than 80%.),◯ (OD value is 70 to less than 80%.),–,–
CCCCCCCCCCCCCCCCCCOC(=O)CSc1cc(O)c2c(c1N)C(=O)c1ccccc1C2=O [compound 27],◯ (OD value is 70 to less than 80%.),Δ (OD value is 50 to less than 70%.),–,–
CCCCC(CC)COC(=O)CSc1ccccc1Oc1cc(O)c2c(c1N)C(=O)c1ccccc1C2=O (stereo not drawn) [compound 28],◯ (OD value is 70 to less than 80%.),◯ (OD value is 70 to less than 80%.),–,–
CCCCC(CC)COC(=O)CCSc1cc(O)c2c(c1N)C(=O)c1ccccc1C2=O (stereo not drawn) [compound 29],◯ (OD value is 70 to less than 80%.),Δ (OD value is 50 to less than 70%.),–,–
CCCCC(CC)COC(=O)CSc1cc(O)c2c(c1N)C(=O)c1ccccc1C2=O (stereo not drawn) [compound 30],◯ (OD value is 70 to less than 80%.),Δ (OD value is 50 to less than 70%.),–,–
Nc1c(SCCOCCSc2cc(O)c3c(c2N)C(=O)c2ccccc2C3=O)cc(O)c2c1C(=O)c1ccccc1C2=O [compound 31],◯ (OD value is 70 to less than 80%.),Δ (OD value is 50 to less than 70%.),–,–
CCCCOC(=O)CSc1cc(O)c2c(c1N)C(=O)c1ccccc1C2=O [compound 32],◯ (OD value is 70 to less than 80%.),Δ (OD value is 50 to less than 70%.),–,–
CCCCC(CC)C(=O)Nc1ccccc1Oc1cc(O)c2c(c1N)C(=O)c1ccccc1C2=O (stereo not drawn) [compound 33],◯ (OD value is 70 to less than 80%.),◯ (OD value is 70 to less than 80%.),–,–
CCCCC(CC)C(=O)Nc1cccc(Oc2cc(O)c3c(c2N)C(=O)c2ccccc2C3=O)c1 (stereo not drawn) [compound 34],◯ (OD value is 70 to less than 80%.),◯ (OD value is 70 to less than 80%.),–,–
Nc1c(Oc2ccccc2NC(=O)c2ccccc2)cc(O)c2c1C(=O)c1ccccc1C2=O [compound 35],◯ (OD value is 70 to less than 80%.),◯ (OD value is 70 to less than 80%.),–,–
CCCCN(CCCC)c1cccc(CCOc2cc(O)c3c(c2N)C(=O)c2ccccc2C3=O)c1 [compound 36],◯ (OD value is 70 to less than 80%.),◯ (OD value is 70 to less than 80%.),–,–
Nc1c(Oc2cccc(C(F)(F)F)c2)cc(O)c2c1C(=O)c1ccccc1C2=O [compound 37],◯ (OD value is 70 to less than 80%.),◯ (OD value is 70 to less than 80%.),–,–
CCCCCCCCCc1ccc(Oc2cc(O)c3c(c2N)C(=O)c2ccccc2C3=O)cc1 [compound 38],◯ (OD value is 70 to less than 80%.),◯ (OD value is 70 to less than 80%.),–,–
CCCCC(CC)C(=O)Oc1ccc(Oc2cc(O)c3c(c2N)C(=O)c2ccccc2C3=O)cc1 (stereo not drawn) [compound 39],◯ (OD value is 70 to less than 80%.),◯ (OD value is 70 to less than 80%.),–,–
CCCCC(CC)COC(=O)CSc1ccc(Oc2cc(O)c3c(c2N)C(=O)c2ccccc2C3=O)cc1 (stereo not drawn) [compound 40],◯ (OD value is 70 to less than 80%.),◯ (OD value is 70 to less than 80%.),–,–
